Assay results from PMC3575409, “Identification of a Novel Protein-Protein Interaction Motif Mediating Interaction of GPCR-Associated Sorting Proteins with G Protein-Coupled Receptors” (PLoS ONE, 2013).
“Also recorded” adds a separate entry of the source.

Legend:
[1] = target: T1, binding of full-length CNR2 to the central domain of GASP-1 (Homo sapiens, UniProt P34972); assay: SPR competition, CNR2 / central domain of GASP-1; details: 0.30 µM CNR2, GASP peptide 250 µM, control peptide up to 250 µM
T1 construct: Both ADRB2 and CNR2 full-length receptors were produced in P. pastoris and purified as previously described; implied only by the HisTrap purification; made in house; host or cells: CNR2: Pichia pastoris; GST-GASP-1(380-1073): E. coli BL21
Protocol: (§1) The human ADRB2 and CNR2 receptors were produced using the P. pastoris expression system as previously described, [16]. After methanol-induced receptor expression, cells were washed with PBS pH 7.0 and resuspended in ice-cold buffer A (50 mM Tris-HCl pH 7.4, 500 mM NaCl, 10% glycerol, 5 mM EDTA, 1 mM PMSF, 2 mM DDT). Cells were then lysed with two cycles of 20 s shaking and 20 s cooling on ice using 0.5 mm glass beads in a FastPrep 24 device. Unbroken cells and cell debris were removed by centrifugation (3000 g, 5 min, 4°C) and the membrane fraction from the supernatant was pelleted by ultracentrifugation (100,000 g, 45 min, 4°C). Membranes were resuspended in buffer B (50 mM Tris-HCl pH 7.4, 500 mM NaCl, 10% glycerol, 1 mM PMSF, 2 mM DTT) using a Dounce homogenizer, and then successively washed with urea (buffer B with 4 M urea) and NaOH (buffer B with 10 mM NaOH), and ultracentrifuged (100,000 g, 45 min, 4°C). Finally membranes were resuspended in buffer B and quantified with the bicinchoninic acid (BCA) method (Pierce). […]
(§2) The binding curves were double referenced by (i) subtraction of the signal from the GST captured flow cell from the signal of the flow cell with captured central domain of GASP-1 and (ii) subtraction of the appropriate blank injection from the receptor injections with or without peptide. […] Endpoint responses were read 20 s after injection end. […]

[2] = target: T2, binding of full-length ADRB2 to the central domain of GASP-1 (Homo sapiens, UniProt P07550); assay: SPR competition, ADRB2 / central domain of GASP-1; details: 1.1 µM ADRB2, GASP peptide 250 µM, control peptide up to 250 µM
T2 construct: Both ADRB2 and CNR2 full-length receptors were produced in P. pastoris and purified as previously described; implied only by the HisTrap purification; made in house; host or cells: ADRB2: Pichia pastoris; GST-GASP-1(380-1073): E. coli BL21
Protocol: as §1, §2

[3] = system: interaction between GASP-7 and GST-fused ADRB1 C-tail; assay: GST-pull down competition, GASP-7 / ADRB1 C-tail; format: binding; details: 150 µM peptide
Protocol: (§3) GST-fusion proteins were immobilized on glutathione-coupled Sepharose beads (GE Healthcare) for 1 h at 4°C and incubated with [^35S]-labelled in vitro translated GASP proteins or their truncated or mutated forms in ice-cold binding buffer containing: 20 mM Tris-HCl pH 7.4, 150 mM NaCl, 1 mM EDTA, 1 mM DTT, 10% glycerol and 1% Triton X-100. The mixture was incubated for 1 h at 4°C with gentle rocking. The beads were washed five times with the same ice-cold buffer, resuspended in 30 µl SDS-PAGE sample buffer, incubated 10 min at 65°C, and pelleted for 60 s at 3000 g. The supernatants were then analyzed by SDS-PAGE, the gels were stained with Coomassie blue to visualize GST-fusion proteins, dried and analyzed using a Phosphor-imager (Personal Molecular Imager FX, Biorad) to visualize [^35S]-labelled GASPs. Quantification was performed with the Quantity One software (Biorad). GST-pull down quantification data were analyzed using GraphPad Prism 4.03 (GraphPad Software). Quantifications presented are means of at least three independent experiments.
(§4) GASP peptide or its corresponding scrambled version was incubated with GST-fused proteins and [^35S]-labelled GASPs and the binding was analyzed as described for the GST-pull down assay. […]

[4] = system: interaction between GASP-1 and GST-fused ADRB1 C-tail; assay: GST-pull down competition, GASP-1 / ADRB1 C-tail; format: binding; details: 150 µM peptide
Protocol: as §3, §4

[5] = system: interaction between GASP-2 and GST-fused ADRB1 C-tail; assay: GST-pull down competition, GASP-2 / ADRB1 C-tail; format: binding
Protocol: as §3, §4

T1 sequence (P34972 whole entry, the tested form may be a part): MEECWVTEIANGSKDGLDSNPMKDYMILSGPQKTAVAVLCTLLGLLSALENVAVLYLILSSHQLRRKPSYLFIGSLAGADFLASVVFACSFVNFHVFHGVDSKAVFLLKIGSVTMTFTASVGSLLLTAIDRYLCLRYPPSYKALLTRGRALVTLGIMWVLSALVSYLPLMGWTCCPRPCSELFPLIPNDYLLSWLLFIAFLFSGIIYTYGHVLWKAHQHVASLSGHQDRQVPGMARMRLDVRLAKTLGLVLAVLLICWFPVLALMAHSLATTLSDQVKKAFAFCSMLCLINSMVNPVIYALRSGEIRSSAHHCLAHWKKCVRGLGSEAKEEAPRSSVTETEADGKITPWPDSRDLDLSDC

Sequence: RVKQEPRFEEEVIIGAAAAAEKEA [control peptide, control peptide where the conserved SWFW motif was changed to AAAA]
- effect on binding of CNR2 to the central domain of GASP-1 [1]: only had a minor effect on the interaction
- effect on binding of ADRB2 to the central domain of GASP-1 [2]: only had a minor effect on the interaction

Sequence: AVEWIQEVFWEKRKPEEFGIERAS [scrambled peptide, scrambled version of GASP peptide]
- effect on the interaction between GASP-7 and ADRB1 C-tail [3]: did not
- effect on the interaction between GASP-1 and ADRB1 C-tail [4]: did not
- effect on the interaction between GASP-2 and ADRB1 C-tail ([5]; 150 µM peptide): did not
- effect on the interaction between GASP-2 and ADRB1 C-tail ([5]; dose-effect experiment, peptide 1 to 250 µM (scrambled: highest dose)): did not affect this interaction; also recorded: no significant effect
